The structures appear in SMILES notation.

Assay [1] has as its target Phosphatidylinositol 5-phosphate 4-kinase type-2 gamma (Homo sapiens) (UniProt Q8TBX8). The assay can be described thus: Inhibition of T7 bacteriophage fused human PIP5K2C at 10 uM by KINOMEscan analysis relative to control.
The target in assay [2] is Serine/threonine-protein kinase 16 (Homo sapiens) (UniProt O75716). Put plainly: Inhibition of T7 bacteriophage fused human STK16 at 10 uM by KINOMEscan analysis relative to control.
Chain of Serine/threonine-protein kinase 16 (Homo sapiens) (O75716 whole entry, the tested form may be a part, canonical isoform): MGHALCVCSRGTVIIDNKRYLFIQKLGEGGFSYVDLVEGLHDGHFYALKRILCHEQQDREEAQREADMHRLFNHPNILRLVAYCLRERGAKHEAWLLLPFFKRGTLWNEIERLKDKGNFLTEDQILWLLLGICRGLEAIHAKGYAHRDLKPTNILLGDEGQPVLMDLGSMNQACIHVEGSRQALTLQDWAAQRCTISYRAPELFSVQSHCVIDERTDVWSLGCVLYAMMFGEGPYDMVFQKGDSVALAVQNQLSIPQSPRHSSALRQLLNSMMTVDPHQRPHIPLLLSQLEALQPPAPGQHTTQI
Assay [3] concerns the target Phosphatidylinositol 4,5-bisphosphate 3-kinase catalytic subunit delta isoform (Homo sapiens) (UniProt O00329). Put plainly: Inhibition of T7 bacteriophage fused human PIK3CD at 10 uM by KINOMEscan analysis relative to control.

Chain of Phosphatidylinositol 5-phosphate 4-kinase type-2 gamma (Homo sapiens) (Q8TBX8 whole entry, the tested form may be a part): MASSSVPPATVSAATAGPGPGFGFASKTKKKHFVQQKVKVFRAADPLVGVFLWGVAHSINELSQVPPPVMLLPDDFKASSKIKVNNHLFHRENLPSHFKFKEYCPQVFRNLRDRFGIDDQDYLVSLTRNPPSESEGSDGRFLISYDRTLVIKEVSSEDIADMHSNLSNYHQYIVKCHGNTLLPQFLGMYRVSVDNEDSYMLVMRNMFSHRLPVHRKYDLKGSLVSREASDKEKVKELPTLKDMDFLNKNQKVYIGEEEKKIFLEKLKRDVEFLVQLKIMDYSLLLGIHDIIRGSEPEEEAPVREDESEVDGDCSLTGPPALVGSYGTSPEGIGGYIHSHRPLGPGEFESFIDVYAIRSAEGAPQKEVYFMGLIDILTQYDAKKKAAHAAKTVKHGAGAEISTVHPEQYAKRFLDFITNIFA
Chain of Phosphatidylinositol 4,5-bisphosphate 3-kinase catalytic subunit delta isoform (Homo sapiens) (O00329 whole entry, the tested form may be a part, canonical isoform): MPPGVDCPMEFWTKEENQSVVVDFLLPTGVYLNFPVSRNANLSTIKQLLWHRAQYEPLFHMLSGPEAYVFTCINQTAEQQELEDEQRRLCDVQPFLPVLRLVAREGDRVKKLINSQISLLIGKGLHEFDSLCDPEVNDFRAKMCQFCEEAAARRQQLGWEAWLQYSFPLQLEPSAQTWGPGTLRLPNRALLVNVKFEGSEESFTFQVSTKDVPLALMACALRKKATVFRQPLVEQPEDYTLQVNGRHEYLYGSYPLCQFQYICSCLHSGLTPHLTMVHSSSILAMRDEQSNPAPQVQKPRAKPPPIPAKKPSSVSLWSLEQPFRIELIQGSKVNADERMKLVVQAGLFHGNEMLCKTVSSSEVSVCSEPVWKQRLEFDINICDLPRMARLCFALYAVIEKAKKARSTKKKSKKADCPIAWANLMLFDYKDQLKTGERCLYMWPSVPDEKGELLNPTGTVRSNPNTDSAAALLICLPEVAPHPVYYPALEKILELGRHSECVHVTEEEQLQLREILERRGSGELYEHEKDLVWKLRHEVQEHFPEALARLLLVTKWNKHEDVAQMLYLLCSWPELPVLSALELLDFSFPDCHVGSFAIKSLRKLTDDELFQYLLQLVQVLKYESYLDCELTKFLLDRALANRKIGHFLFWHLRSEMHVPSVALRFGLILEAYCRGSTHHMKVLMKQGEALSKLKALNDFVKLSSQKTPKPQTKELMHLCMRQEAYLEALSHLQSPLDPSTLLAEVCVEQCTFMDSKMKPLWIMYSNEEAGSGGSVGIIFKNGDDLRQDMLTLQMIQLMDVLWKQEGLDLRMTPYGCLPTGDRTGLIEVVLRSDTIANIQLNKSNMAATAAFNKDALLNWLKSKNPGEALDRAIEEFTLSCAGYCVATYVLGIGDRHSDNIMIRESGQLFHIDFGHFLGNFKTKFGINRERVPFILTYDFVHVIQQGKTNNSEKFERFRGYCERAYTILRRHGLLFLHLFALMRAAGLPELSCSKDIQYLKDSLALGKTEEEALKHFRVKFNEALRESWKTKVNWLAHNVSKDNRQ

In general, inhibition refers to the drop in the measured response relative to a control, in per cent. A high value points to strong suppression. As to `COc1cc(N2CCC(N3CCN(C)CC3)CC2)ccc1Nc1ncc2c(n1)N(C)c1ccccc1C(=O)N2C`, the inhibition came out at 40% in assay [1], 62% in assay [2] and 62% in assay [3].

The record behind these values is ChEMBL document CHEMBL5678810.
